{"source": "patent US12642809B2", "about": "“Fucosylation and immune modulation in cancer” (H. LEE MOFFITT CANCER CENTER AND RESEARCH INSTITUTE, INC., priority 2019, dated 2026)", "key": {"1205Lu melanoma cells": {"system": "1205Lu melanoma cells", "test": "LDH-release NK cell killing of pre-treated 1205Lu melanoma cells", "type": "cell-based", "details": "250 μM pre-treatment, 8 h co-culture, immortalized and primary human NK cells", "method": "The possibility that tumor fucosylation can directly activate the tumor cell-killing activity of NK cells was explored. To assay for this possibility, a lactate dehydrogenase (LDH)-release-based assay was used in which the fucosylation of LU1205 melanoma cells was modulated prior to co-culture with NK cells. Specifically, primary NK cells isolates (5A) or immortalized NK92 cell line (5B) were co-cultured with 1205Lu melanoma cells that were pre-treated with DMSO, 250 μM pan-fucosyltransferase inhibitor (FUTi), or 250 μM L-fucose for 8 hours. Non-radioactive LDH-release cytotoxicity assay was performed to measure extent of NK cell-mediated killing. […] Immunoblot analysis using AAL lectin (another fucose-binding lectin) was performed to confirm the effects of FUTi (5C) or L-fucose (5D) on 1205Lu cells (96 h treatment). (•: […]) (*: […])."}, "MDSCs": {"system": "MDSCs", "test": "T cell proliferation in co-culture with pre-treated MDSCs", "type": "cell-based", "details": "CD3/CD28 activation, CellTrace Violet", "method": "Shown progressive divisions of CD3/CD28-activated T cells (both CD4+ and CD8+ combined) as affected by co-culture with DMSO (control)-, FUTi (fucosyltransferase inhibitor)-, or L-fucose-pre-treated MDSCs. Undivided T cells are represented by the dark grey column. Divisions were measured by loss of CellTrace™ Violet stain. First division is represented by the light green column; second division is represented by the yellow column; and third division is represented by the navy blue column."}, "SM1 tumors": {"system": "SM1 tumors", "test": "CD4+/CD8+ T cell immunodepletion, SM1 model", "type": "in vivo, mouse", "details": "CD4+ T cell-depleted mice", "method": "Single-cell suspensions from tumor and spleen tissue were stained with Live/Dead Zombie NIR (Biolegend, (San Diego, CA)) at 1:1,000 in PBS for 20 min. Cell suspensions were spun down and stained with the following antibodies: APC anti-mouse CD3 (0.5 μg/mL, BD Biosciences (San Jose, CA)), Pacific Blue anti-mouse CD4 ([…], BD Biosciences (San Jose, CA)), BV785 anti-mouse CD8 (0.5 μg/mL, BD Biosciences (San Jose, CA)), PerCP anti-mouse CD25 ([…], BD Biosciences (San Jose, CA)), FITC anti-mouse F4/80 (0.5 μg/mL, BD Biosciences (San Jose, CA)), PeCy7 anti-mouse CD11c (0.5 μg/mL, BD Biosciences (San Jose, CA)), PE anti-mouse NK1.1 (0.5 μg/mL, BD Biosciences (San Jose, CA)), PE anti-mouse DX5 (0.5 μg/mL, BD Biosciences (San Jose, CA)), PerCP-Cy5.5 anti-mouse CD11b (0.5 μg/mL, BD Biosciences (San Jose, CA)). After staining, the cells were washed and fixed (2% formaldehyde), followed by another wash and flow cytometric analysis. The compensation controls were prepared using 0.5 μg/ml. of each antibody with beads UltraComp eBeads™, (ThermoFisher Scientific (Waltham, MA)). […] Flow cytometric data was further analyzed using FlowJo™ analysis software (BD Biosciences (San Jose, CA)). TIL profiles were determined as a measure of TIL subpopulations per gram of tumor tissues or % of total splenocytes. […]"}, "human CD4+ T cells": {"system": "human CD4+ T cells", "test": "CD3/CD28 human CD4+ T cell activation assay / IFNγ ELISA", "type": "cell-based", "method": "Human CD4^+ T cells were isolated from fresh PBMC using a CD4^+ T cell negative selection isolation kit (Stem Cell Technologies, (Vancouver CA)) according to manufacturer's protocols. CD4^+ T cells were cultured in the presence of DMSO, 250 μM FUTi (Millapore Sigma (St. Louis, MO)), or 250 μM L-fucose 3 days prior to activation. After 3 days, the CD4^+ T cells were activated using anti-CD3/CD28 Dynabeads (ThermoFisher Scientific (Waltham, MA)) in a 1:1 bead: CD4^+ T cell ratio. After 24 h, supernatants were collected and IFNγ ELISA was performed according to manufacturer's protocols (Biolegend (San Diego, CA))."}}, "data": [{"smiles": "C[C@H](O)[C@@H](O)[C@@H](O)[C@H](O)C=O", "note": "[L-fucose]", "values": [{"measurement": "NK cell-mediated tumor-cell killing", "setting": "1205Lu melanoma cells", "result": "sufficient to induce the tumor-cell killing activity"}, {"measurement": "effect of pre-treated MDSCs on T cell proliferation", "setting": "MDSCs", "result": "do not"}, {"measurement": "L-fuc-triggered suppression of SM1 tumors and TIL increases", "setting": "SM1 tumors", "result": "abrogated"}, {"measurement": "increase of CD4+ T cell activation (IFNγ production)", "setting": "human CD4+ T cells; 250 μM, 3 days before CD3/CD28 activation", "result": "~37", "unit": "%"}, {"measurement": "IFN-γ production relative to DMSO treated controls", "setting": "human CD4+ T cells; FIG. 13", "result": "increase"}]}]}
